The source of these data is paper PMC5615103 (Toxicology Reports, 2017).

Entries after “also recorded” stand apart in the source; their conditions may differ. Read-outs that look alike come from different tables or passages of the source. Marks after values point to notes of the source that are not given here.

Data set [1] concerns HepG2 cells. Description: HepG2 viability. Type of data set: cell-based, human. Particulars: 3-5 × 10^5 THP-1 monocytes, no stimulus; same concentrations.
Data set [2] in a line: average plasma maximum concentration. Type of data set: in vivo, humans. Particulars: human.
Data set [3] in a line: WST-1 dose-response cytotoxicity in THP-1 monocytes. Particulars: human, THP-1 monocytes. Type of data set: cell-based, human. For orientation: Formazan colour is commonly taken as a measure of viable cells.
The conditions of data set [4]: cited from earlier work; for DILI classification (b) positive or negative for DILI: ref Xu et al. [33]; for iDILI/non-iDILI: selected by literature research, ref [30], [4], [8], [31], [32]; for FDA status: FDA-approved labels, ref DailyMed; for DILI classification (a) LTKB class: Liver Toxicity Knowledge Base, ref Chen et al. [34].
The conditions of data set [5]: human plasma, cited from earlier work.
Data set [6] can be described thus: WST-1 dose-response cytotoxicity in HepG2 monoculture. Type of data set: cell-based, human. Particulars: human, HepG2 cells (monoculture).
The test system of data set [7] is HepG2 cells. The data set is described as above. Particulars: for EC80 (concentration at which 80% of the cells are still viable) / EC50: HepG2, 24 h; for EC80 (concentration at which 80% of the cells are still viable): WST-1; for EC50: Homo sapiens. Type of data set: cell-based, human.
The test system of data set [8] is HepG2 cells. Description: HepG2 viability. Type of data set: cell-based, human. Particulars: 1 μg/mL LPS, 48 h; for synergy with LPS in co-culture with THP-1 monocytes: co-culture HepG2 + THP-1 monocytes; for enhanced cell death in HepG2 cells on co-exposure with LPS: mono- and co-cultures with THP-1 monocytes, 25 μM TVX/LVX, 20 μM KC/FC.
The subject of data set [9] is THP-1 monocytes. Description: WST-1 dose-response cytotoxicity in THP-1 monocytes. Type of data set: cell-based, human. Particulars: for EC50: Homo sapiens, THP-1, 24 h; for EC80 (concentration at which 80% of the cells are still viable): THP-1 monocytes, 24 h, WST-1.
The subject of data set [10] is HepG2 cells. The experiment in a line: HepG2 viability. Type of data set: cell-based, human. Particulars: 10 ng/mL TNF, 24 h; for change of the TNF-dependent synergistic effect by addition of THP-1 monocytes: co-culture HepG2 + THP-1 monocytes; for synergistic effect (enhanced cellular death) on co-exposure with TNF: HepG2 monoculture, 32 μM TGZ/RGZ, 25 μM TVX/LVX, 125 μM DcL/ASS, 20 μM KC/FC.

Data set [11] has as its system HepG2 cells. Description: Morphology of HepG2 cell cultures. Type of data set: cell-based, human. Particulars: 24 h; for alterations in the morphology of HepG2 cell cultures: 25 μM TVX or 125 μM DcL + 10 ng/mL TNF.
The subject of data set [12] is HepG2 cells. Description: HepG2 monoculture, increasing drug concentrations with or without TNF, WST-1. Type of data set: cell-based, human. Particulars: 24 h; for TNF-dependent synergistic effect at increasing drug concentrations: with vs without 10 ng/mL TNF.

Turning to `CN(CCOc1ccc(CC2SC(=O)NC2=O)cc1)c1ccccn1` (centres unmarked) [RGZ, Rosiglitazone], in data set [1], the “influence of higher THP-1 monocyte number on the effect in co-culture” value (shortened to “influence”) is “only negligible effects”. The Cmax (as a rule, the maximum level reached in the sampled fluid or tissue) in [2] amounted to 104 µM. The same compound showed a cytotoxicity at 24 h, 32 µM in data set [3] of 10%. Besides, in data set [4], the “DILI classification (b) positive or negative for DILI” value (from here on “DILI classification … for DILI”) is on record as “negative” and the iDILI/non-iDILI result is listed as “Non-iDILI”.

On to `CC(=O)N1CCN(c2ccc(OCC3COC(Cn4ccnc4)(c4ccc(Cl)cc4Cl)O3)cc2)CC1` (centres unmarked) [KC, Ketoconazole], for which the Cmax in data set [5] (ref Huang et al. [35]) was 4.22** μg/mL. The viability (as a rule, a per cent measure of how many cells are alive, often set against a control) at 24 h, 20 μM in data set [6] is approximately 80%. In data set [7], the “EC80 (concentration at which 80% of the cells are still viable)” value was found to be 18 µM and the EC50 – broadly, the concentration at which the effect is half-maximal – was found to be 24 µM. The “influence” value in data set [1] was “enhanced by higher numbers of immune cells”. In addition, in data set [2], the Cmax amounted to 794 µM. Moreover, in data set [8], the “synergy with LPS in co-culture with THP-1 monocytes” value is reported as “showed a synergy only in the presence of both” and the “enhanced cell death in HepG2 cells on co-exposure with LPS” value (“enhanced cell death in HepG2 cells” for short) is reported as “significantly enhanced cell death”. In data set [3], this compound yielded a viability at 24 h, 20 μM of approximately 20%. In data set [9], the EC50 is 12 µM and the “EC80 (concentration at which 80% of the cells are still viable)” value is 7 µM. In data set [4], the FDA status entry was “BBW”, the “DILI classification (a) LTKB class” value was “Most DILI-concern” and the iDILI/non-iDILI entry is “iDILI”. For the same compound, the “change of the TNF-dependent synergistic effect by addition of THP-1 monocytes” value in data set [10] is “compensated in the co-culture system”.

In data set [6], `Cc1c(C)c2c(c(C)c1O)CCC(C)(COc1ccc(CC3SC(=O)NC3=O)cc1)O2` (centres unmarked) [TGZ, Troglitazone] had a viability at 24 h, 32 μM of approximately 85%. In [7], the “EC80 (concentration at which 80% of the cells are still viable)” value was 34 µM and the EC50 turned out to be 40 µM. Also, in data set [1], the “influence” value was “enhanced at higher THP-1 cell numbers”. In data set [2], this compound yielded a Cmax of 639 µM. Moreover, in data set [3], the viability at 24 h, 32 μM was approximately 70%. In [9], a half-maximal effect (EC50) was put at 42 µM and the “EC80 (concentration at which 80% of the cells are still viable)” value stood at 27 µM. Moreover, in data set [4], the FDA status entry is “WDN”, the “DILI classification (a) LTKB class” value is recorded as “Most DILI-concern”, the “DILI classification … for DILI” value is “positive” and the iDILI/non-iDILI entry is on record as “iDILI”. Also, the “synergistic effect (enhanced cellular death) on co-exposure with TNF” value (from here on “synergistic effect … on co-exposure with TNF”) in data set [10] was “synergy”.

Consider `OC(Cn1cncn1)(Cn1cncn1)c1ccc(F)cc1F` [FC, Fluconazole], for which, in data set [2], the Cmax is 882 µM. Besides, in data set [8], the “enhanced cell death in HepG2 cells” value is listed as “did not show any relevant effects”. In addition, in data set [4], the “DILI classification (a) LTKB class” value is “Most DILI-concern” and the “DILI classification … for DILI” value is “positive”.

The compound `C[C@H]1COc2c(N3CCN(C)CC3)c(F)cc3c(=O)c(C(=O)O)cn1c23` [LVX, Levofloxacin] showed a Cmax in [2] of 1580 µM. Moreover, the “enhanced cell death in HepG2 cells” value in [8] is recorded as “did not show any relevant effects”. Besides, the “DILI classification … for DILI” value in data set [4] is reported as “negative”.

Regarding `CC(=O)Oc1ccccc1C(=O)O` [ASS, Acetylsalicylic acid], the Cmax in data set [5] (commonly recommended therapeutic doses, ref Xu et al. [33]) is 1.00 µg/mL; in data set [2], 552 µM. Besides, in [4], the “DILI classification … for DILI” value is on record as “negative”. For the same compound, the iDILI/non-iDILI result in [4] is “Non-iDILI”.

Consider `N[C@@H]1[C@H]2CN(c3nc4c(cc3F)c(=O)c(C(=O)O)cn4-c3ccc(F)cc3F)C[C@@H]12` [TVX, Trovafloxacin], for which, in data set [6], the viability at 24 h, 25 μM was approximately 92%. In [7], the “EC80 (concentration at which 80% of the cells are still viable)” value came to 100 µM and the EC50 stood at 370 µM. This compound displayed a Cmax in data set [2] of 408 µM. Moreover, in [8] (HepG2 monoculture), the “synergy with LPS in the HepG2 monoculture” value was “showed a synergy”. Further, in [8], the “synergy with LPS in co-culture with THP-1 monocytes” value was “not intensified by immune cells” and the “enhanced cell death in HepG2 cells” value was “significantly enhanced cell death”. Further, the “alterations in the morphology of HepG2 cell cultures” value in data set [11] is given as “pronounced hepatocellular injury”. Further, the “TNF-dependent synergistic effect at increasing drug concentrations” value in [12] is on record as “dose-dependently increased”. The compound further yielded a viability at 24 h, 25 μM in data set [3] of approximately 76%. For the same compound, in [9], the concentration giving a half-maximal response (EC50) amounted to 60 µM and the “EC80 (concentration at which 80% of the cells are still viable)” value came to 23 µM. In [4], the FDA status entry is “WDN” and the iDILI/non-iDILI entry is listed as “iDILI”. Besides, the “synergistic effect … on co-exposure with TNF” value in data set [10] is “stronger than in the case of TGZ and KC”.

On to `O=C(O)Cc1ccccc1Nc1c(Cl)cccc1Cl` [DcL, Diclofenac], for which the viability at 24 h, 125 μM in data set [6] was approximately 100%. Moreover, in data set [7], the “EC80 (concentration at which 80% of the cells are still viable)” value was determined as 604 µM and the EC50 came out at 775 µM. Further, the “cytotoxicity / metabolic activity at the used concentration” value in data set [7] (HepG2, same concentration as in co-culture experiments, 24 h) is on record as “no cytotoxicity; also recorded: not affected”. For the same compound, in data set [1], the “influence” value is “enhanced by higher numbers of immune cells”. Further, the Cmax in data set [2] is 744 µM. For the same compound, in [11], the “alterations in the morphology of HepG2 cell cultures” value is on record as “pronounced hepatocellular injury”. Further, the “morphology of HepG2 cells” value in [11] (selected concentration (125 μM), drug alone) was “morphological changes”. For the same compound, the “doses necessary to elicit enhanced toxicities (onset of synergy with TNF)” value in [12] (10 ng/mL TNF) is more than 50 µM. Also, the “synergistic effect when co-exposed with TNF” value in [12] (drug 50 μM, 10 ng/mL TNF) is “not able to induce a synergistic effect”. Also, the “TNF-dependent synergistic effect at increasing drug concentrations” value in [12] was “stronger than those of TGZ and KC”. Moreover, the viability at 24 h, 125 μM in data set [3] is approximately 30%. In data set [9], the midpoint of the response, the EC50, lay at 76 µM and the “EC80 (concentration at which 80% of the cells are still viable)” value stood at 30 µM. For the same compound, in [4], the “DILI classification (a) LTKB class” value is given as “Most DILI-concern” and the “DILI classification … for DILI” value is given as “positive”. In addition, in data set [10], the “synergistic effect … on co-exposure with TNF” value is “stronger than in the case of TGZ and KC”; the “change of the TNF-dependent synergistic effect by addition of THP-1 monocytes” value is “compensated in the co-culture system”.
